Target: T1, human zDHHC17 (Homo sapiens, UniProt Q8IUH5)
T1 construct: expressed in transfected cells; host or cells: HEK293T
Experiment: GFP-SNAP25b S-acylation in HEK293T cells co-expressing zDHHC17
Format: cell-based
Details: in cellulo HEK293T, compound 25 μM; for inhibition at 25 µM: HEK-293T, read-out: SNAP25 S-acylation inhibition (%), zDHHC17; for SNAP25 S-acylation inhibition (%), zDHHC17: 25 µM
Protocol: We next investigated whether the identified compounds were effective at inhibiting zDHHC enzyme isoforms other than zDHHC2 (Fig. 6 and Table 1). […] We therefore treated cells coexpressing GFP-SNAP25 and each of these zDHHC enzymes with 25 μM of TTZ-1 and TTZ-2 and studied the subsequent effect on SNAP25 S-acylation. […] Importantly, the level of enzyme expression was unaffected by the compounds. […] As any major differences in the expression levels of the different enzymes could in theory contribute to the apparent differential effects of TTZ-1 and TTZ-2, we directly compared the expression of zDHHC2, zDHHC3, zDHHC7, zDHHC15, and zDHHC17 when transfected in HEK293T cells together with GFP-SNAP25.
Figure 6 Activity of TTZ-1 and TTZ-2 against SNAP25 S-acylation by human zDHHC2, zDHHC3, zDHHC7, zDHHC15, and zDHHC17 expressed in mammalian cells.A–E, HEK293T cells were transfected with a plasmid encoding GFP-SNAP25b together with either a control plasmid pEF-BOS-HA (pEF) or a plasmid encoding either HA-tagged human zDHHC2 (zD2) (A), zDHHC3 (zD3) (B), zDHHC7 (zD7) (C), zDHHC15 (zD15) (D), or zDHHC17 (zD17) (E) for 24 h. Cells were then preincubated for 4 h with TTZ-1 or TTZ-2 (25 μM final) or DMSO control before metabolic labeling with 100 μM C16:0-azide for 4 h. Cells were lysed, and proteins having incorporated C16:0-azide were labeled by click chemistry with an alkyne-IR800 dye. Protein samples were then resolved by SDS-PAGE and transferred to nitrocellulose membranes that were first stained with an infrared-680 total protein stain. Membranes were then destained and probed with an anti-HA antibody (IR680), followed by an anti-GFP antibody (IR680). Representative images are shown, and panels are presented in the following order (from top to bottom): click chemistry signal (Click [IR800]), GFP and HA immunoblots (IR680), and Total Protein Stain (IR680). Positions of the molecular mass markers (in kilodalton) are indicated on the right side of the membranes. Three independent experiments were performed either in duplicate or in triplicate, and the quantification data were gathered on the graphs below each set of membranes. […] Filled circles represent individual samples. […] Filled circles represent individual samples. Statistical analysis (ANOVA) was performed to test whether there was a significant difference between the zDHHC expression of cells treated with DMSO as a control versus similar samples treated with TTZ-1 or TTZ-2 (∗∗p < 0.01). F, samples from A, B, C, D, and E (expressing GFP-SNAP25 and HA-tagged zDHHC enzymes and treated with DMSO) were loaded on an SDS-PAGE gel and transferred to a nitrocellulose membrane. The membrane was probed for the expression of the HA-tagged enzymes with an anti-HA antibody (IR680). […]

T1 sequence (Q8IUH5 whole entry): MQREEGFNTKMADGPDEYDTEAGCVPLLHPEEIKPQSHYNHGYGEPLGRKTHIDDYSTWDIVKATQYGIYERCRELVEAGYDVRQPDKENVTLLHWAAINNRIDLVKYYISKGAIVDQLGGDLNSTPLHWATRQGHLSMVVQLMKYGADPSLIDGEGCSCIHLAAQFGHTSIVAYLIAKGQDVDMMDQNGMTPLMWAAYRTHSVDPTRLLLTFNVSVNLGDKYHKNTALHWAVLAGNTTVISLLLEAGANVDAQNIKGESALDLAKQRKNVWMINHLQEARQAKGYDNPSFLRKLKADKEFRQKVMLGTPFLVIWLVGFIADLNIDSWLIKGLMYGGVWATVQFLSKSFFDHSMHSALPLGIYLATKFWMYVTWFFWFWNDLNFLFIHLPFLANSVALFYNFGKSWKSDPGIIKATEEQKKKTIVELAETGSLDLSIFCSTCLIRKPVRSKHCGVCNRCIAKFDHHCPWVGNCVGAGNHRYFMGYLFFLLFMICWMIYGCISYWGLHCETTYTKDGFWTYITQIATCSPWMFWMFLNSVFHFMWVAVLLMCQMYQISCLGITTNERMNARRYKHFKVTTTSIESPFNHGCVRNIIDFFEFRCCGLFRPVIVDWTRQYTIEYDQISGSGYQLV

| SMILES | inhibition at 25 µM | SNAP25 S-acylation inhibition (%), zDHHC17 |
| --- | --- | --- |
| CCCCCCCOc1ccc(C(=O)Nc2cccc3c2OC(c2nnn[nH]2)CN3)cc1 (stereo not shown) [TTZ-1, N-(2-(1H-Tetrazol-5-yl)-3,4-dihydro-2H-benzo[b][1,4]oxazin-8-yl)-4-(heptyloxy)benzamide] | 35 to 40% | 36 ± 7% |
| O=C(Nc1cccc2c1OC(c1nnn[nH]1)CN2)c1ccc(OCCCCc2ccccc2)cc1 (stereo not shown) [TTZ-2, N-(2-(1H-Tetrazol-5-yl)-3,4-dihydro-2H-benzo[b][1,4]oxazin-8-yl)-4-(4-phenylbutoxy)benzamide] | 35 to 40% | 39 ± 7% |

Reference: publication PMC9558053, “Development of a novel high-throughput screen for the identification of new inhibitors of protein S-acylation” (The Journal of Biological Chemistry, 2022)
